Experiments:
[1] = (§1) The drug is tested on Z-029 corresponding to rat gut metagenome with ENA study accession number: PRJEB37062 and ENA sample accession number: ERS12561828 for biotransformation under anaerobic condition. The drug concentrations were measured over 9 timepoints collected between 0 and 24 hours of incubation by liquid-chromatography-coupled mass spectrometry (LC–MS); settings: 2 µM
[2] = as §1, with “Z-026” for “Z-029”, “to” for “to rat gut”, “ERS12561825” for “ERS12561828”; settings: 2 µM
[3] = as §1, with “on Z-024” for “on Z-029”, “to pig” for “to rat”, “number: ERS12561823” for “number: ERS12561828”; settings: 2 µM
[4] = as §1, with “on Z-022” for “on Z-029”, “to mouse” for “to rat”, “number: ERS12561821” for “number: ERS12561828”; settings: 2 µM
[5] = as §1, with “on Z-009” for “on Z-029”, “to pig” for “to rat”, “number: ERS12561809” for “number: ERS12561828”; settings: 2 µM
[6] = as §1, with “Z-004” for “Z-029”, “to” for “to rat gut”, “ERS12561804” for “ERS12561828”; settings: 2 µM
[7] = as §1, with “on Z-001” for “on Z-029”, “to mouse” for “to rat”, “number: ERS12561801” for “number: ERS12561828”; settings: 2 µM
[8] = as §1, with “on WLS-370” for “on Z-029”, “to human” for “to rat”, “number: ERS12561793” for “number: ERS12561828”; settings: 2 µM
[9] = as §1, with “on WLS-090” for “on Z-029”, “to human” for “to rat”, “number: ERS12561753” for “number: ERS12561828”; settings: 2 µM
[10] = as §1, with “on WLS-086” for “on Z-029”, “to human” for “to rat”, “number: ERS12561752” for “number: ERS12561828”; settings: 2 µM
[11] = as §1, with “on WLS-027” for “on Z-029”, “to human” for “to rat”, “number: ERS12561744” for “number: ERS12561828”; settings: 2 µM
[12] = human gut metagenome, 24 h, 2 µM
[13] = human gut metagenome, 24 h, 2 µM; remark: listed apart in the source
[14] = human gut metagenome, 24 h, 2 µM; remark: listed apart in the source
[15] = human gut metagenome, 24 h, 2 µM; remark: listed apart in the source
[16] = human gut metagenome, 24 h, 2 µM; remark: listed apart in the source
[17] = human gut metagenome, 24 h, 2 µM; remark: listed apart in the source
[18] = human gut metagenome, 24 h, 2 µM; remark: listed apart in the source
[19] = human gut metagenome, 24 h, 2 µM; remark: listed apart in the source
[20] = human gut metagenome, 24 h, 2 µM; remark: listed apart in the source
Note: call rule not given here.

Row | Compound | Bacterial Biotransformation [1] | Bacterial Biotransformation [2] | Bacterial Biotransformation [3] | Bacterial Biotransformation [4] | Bacterial Biotransformation [5] | Bacterial Biotransformation [6] | Bacterial Biotransformation [7] | Bacterial Biotransformation [8] | Bacterial Biotransformation [9] | Bacterial Biotransformation [10] | Bacterial Biotransformation [11] | Bacterial Biotransformation [12] | Bacterial Biotransformation [13] | Bacterial Biotransformation [14] | Bacterial Biotransformation [15] | Bacterial Biotransformation [16] | Bacterial Biotransformation [17] | Bacterial Biotransformation [18] | Bacterial Biotransformation [19] | Bacterial Biotransformation [20]
1 | CO[C@]12C[C@@H](COC(=O)c3cncc(Br)c3)CN(C)[C@@H]1Cc1cn(C)c3cccc2c13 [NICERGOLINE] | Compound NOT metabolized | Compound metabolized | Compound metabolized | Compound metabolized | Compound metabolized | Compound metabolized | Compound metabolized | Compound metabolized | Compound metabolized | Compound metabolized | Compound metabolized | Compound NOT metabolized | Compound NOT metabolized | Compound NOT metabolized | Compound NOT metabolized | Compound metabolized | Compound NOT metabolized | Compound NOT metabolized | Compound NOT metabolized | Compound metabolized
2 | COc1ccc2c(c1OC)C(=O)O[C@@H]2[C@H]1c2c(cc3c(c2OC)OCO3)CCN1C [NOSCAPINE] | Compound NOT metabolized | Compound NOT metabolized | Compound metabolized | Compound metabolized | Compound metabolized | Compound NOT metabolized | Compound metabolized | Compound NOT metabolized | Compound metabolized | Compound metabolized | Compound NOT metabolized | Compound NOT metabolized | Compound NOT metabolized | Compound NOT metabolized | Compound metabolized | Compound metabolized | Compound NOT metabolized | Compound metabolized | Compound NOT metabolized | Compound NOT metabolized
3 | CCCc1nc(C(C)(C)O)c(C(=O)OCc2oc(=O)oc2C)n1Cc1ccc(-c2ccccc2-c2nnn[nH]2)cc1 [OLMESARTAN MEDOXOMIL] | Compound NOT metabolized | Compound NOT metabolized | Compound metabolized | Compound metabolized | Compound metabolized | Compound metabolized | Compound metabolized | Compound metabolized | Compound NOT metabolized | Compound metabolized | Compound metabolized | Compound metabolized | Compound metabolized | Compound metabolized | Compound metabolized | Compound metabolized | Compound NOT metabolized | Compound metabolized | Compound metabolized | Compound metabolized
4 | NC(=O)N1c2ccccc2CC(=O)c2ccccc21 [OXCARBAZEPINE] | Compound NOT metabolized | Compound NOT metabolized | Compound metabolized | Compound metabolized | Compound metabolized | Compound metabolized | Compound NOT metabolized | Compound metabolized | Compound NOT metabolized | Compound NOT metabolized | Compound NOT metabolized | Compound NOT metabolized | Compound NOT metabolized | Compound NOT metabolized | Compound NOT metabolized | Compound NOT metabolized | Compound NOT metabolized | Compound NOT metabolized | Compound NOT metabolized | Compound NOT metabolized
5 | CCN(CC)CC#CCOC(=O)C(O)(c1ccccc1)C1CCCCC1.Cl (stereo not given) [OXYBUTYNIN CHLORIDE] | Compound NOT metabolized | Compound NOT metabolized | Compound metabolized | Compound metabolized | Compound metabolized | Compound metabolized | Compound metabolized | Compound metabolized | Compound metabolized | Compound metabolized | Compound metabolized | Compound NOT metabolized | Compound metabolized | Compound metabolized | Compound metabolized | Compound metabolized | Compound metabolized | Compound metabolized | Compound metabolized | Compound metabolized
6 | Fc1ccc([C@@H]2CCNC[C@H]2COc2ccc3c(c2)OCO3)cc1 [PAROXETINE] | Compound NOT metabolized | Compound NOT metabolized | Compound metabolized | Compound metabolized | Compound metabolized | Compound NOT metabolized | Compound NOT metabolized | Compound metabolized | Compound metabolized | Compound metabolized | Compound metabolized | Compound NOT metabolized | Compound NOT metabolized | Compound NOT metabolized | Compound metabolized | Compound metabolized | Compound NOT metabolized | Compound metabolized | Compound metabolized | Compound metabolized
7 | O=c1[nH]c2ccccc2n1C1CCN(CCCC(c2ccc(F)cc2)c2ccc(F)cc2)CC1 [PIMOZIDE] | Compound NOT metabolized | Compound NOT metabolized | Compound metabolized | Compound NOT metabolized | Compound metabolized | Compound NOT metabolized | Compound metabolized | Compound metabolized | Compound metabolized | Compound metabolized | Compound metabolized | Compound NOT metabolized | Compound metabolized | Compound metabolized | Compound metabolized | Compound metabolized | Compound NOT metabolized | Compound NOT metabolized | Compound metabolized | Compound metabolized
